Reference: publication PMC6471062, “Suppression of the Ubiquitin Pathway by Small Molecule Binding to Ubiquitin Enhances Doxorubicin Sensitivity of the Cancer Cells” (Molecules, 2019)

What was measured:
E2-25K = experiment: In vitro K48 polyubiquitination reaction with E2-25K; type: biochemical; conditions: purified E2-25K, increasing CR (50–500 µM), 500 µM ubiquitin, 37 °C
Experimental: Figure 5 CR inhibits K48- and K63- polyubiquitination in vitro. (a) Interacting surface of ubiquitin when complex with E2-25K and Ubc13 compared with the surface used for CR binding. (b,c) CR inhibits K48- (b) and K63-ubiquitinations (c). First, mono ubiquitin was mixed with UBA1, E2-25K or complex Mms2/Ubc13, and 0–500 µM CR in the presence or absence of ATP regeneration system. Then the mixture was incubated at 37 °C for […]. The reaction was stopped by adding 5X SDS loading buffer and the results were analyzed with 15% SDS-PAGE.
For in vitro ubiquitination assays, 500 µM of ubiquitin was used for each ubiquitination reaction as described previously, in the absence or presence of 50–500 µM of CR. The reactions were incubated at 37 °C for 4 h and 16 h for K63- and K48 polyubiquitination respectively. The reaction was terminated by adding 5X SDS sampling buffer and results were subjected to 15% SDS-PAGE followed by Coomassie Blue staining for analyses. […] The generation of GST-ubiquitin from GST-Ubiquitin-HA as the mobility shifts were analyzed on 12.5% SDS-PAGE visualized by Coomassie blue staining. Band intensities were quantified by ImageJ [55] and used to generate the IC50 curves (log inhibitor vs. normalized response with variable slope) by GraphPad Prism version 6.0 for Windows (GraphPad Software, San Diego, CA, USA, www.graphpad.com).

H1299 cells = experiment: Cytotoxicity, cell viability assay; type: cell-based
Experimental: (§1) Cell viability assays were performed as described previously. For the caspase assays, the media were removed, and cells were lysed in 200 µL lysis buffer containing 50 µL Caspase Glo 3/7 solution and incubated for 15 min. Results were observed by measuring the luminescence signal using KOMM-Nr (Berthold Technologies, Bad Wildbad, Germany) and normalized with the total protein concentration measured by the Bradford assay. Data were analyzed using GraphPad Prism version 6.0 for Windows with two tail t-test for statistical data analysis […]
Figure S7. Cytotoxicity of CR to cancer cells. H1299 cells were cultured in 96 -well plates. CR was added to final concentrations of 0.0 – 50.0 µM, and the cells were incubated for 24 h followed by cell viability assay. All error bars represent the standard deviation from at least 4 independent experiments. Statistical comparisons between groups were determined by Student’s t -test. If p -values are less than 0.05, they are statistically significant . NS, not […]
(1 picture or pasted object on this page, not shown here)

USP4 = experiment: TOP flash luciferase reporter assay of β-catenin with USP4; type: cell-based; conditions: HEK293T, CR 0–30 μM, 24 h
Experimental: Luciferase reporter assays were performed as described previously. Briefly, HEK293T cells were seeded in 12-well plates at 1 × 10^5 cells per well and incubated for 24 h before being transfected with either SRT-USP4 or Myc-β-catenin expression plasmids, along with the T cell factor (TCF) reporter plasmid (TOP flash) driving the expression of the luciferase gene. Equal amounts of total DNA in transfections were maintained by adding the control plasmids in each transfection experiment. 24 h post-transfection, cells were treated with CR (0–30 µM) for 24 h. After that, cells were harvested for luciferase reporter assays. Luciferase activity was measured according to the manufacturer’s instructions (Promega, Madison, WI, USA). page 5: (a) (b) Figure S5. CR inhibits USP4 deubiquitinase activity on its substrate, ß-catenin on the TOP flash reporter activity. (a) Cells were co-transfected with either SRT-USP4 or Myc‐β‐catenin expression plasmids, and TOP flash reporter plasmid containing a β‐catenin‐induced TCF reporter. 24-h post-transfection, CR was added at increasing concentrations (0 – 30 µM) and the cells were further cultured for 24 h. A top-flash activity assay of ß-catenin was conducted and (b) Western blot analysis with the indicated antibody was performed in parallel. […]

HCT116 cells = experiment: Luminogenic caspase activity assay (Caspase Glo 3/7), HCT116; type: cell-based; conditions: 10 µM CR or 5 µM NSC697923 with Dox
Experimental: Figure 7 CR enhances Dox sensitivity of cancer cells. (a,b) Enhancement of Dox-induced apoptosis of cancer cells by CR treatment. Dox–induced apoptosis of H1299 (a) and HCT116 (b) was quantified by colorimetric cell viability after treating 10 µM CR for 12 h followed by 12h treatment of Dox (0.0–5.0 µM). […] Caspase activity was quantified by luminogenic caspase activity assay. […] All error bars represent the standard deviation from at least four independent experiments. Statistical significance was calculated by the Student’s t-test (** p < 0.01, *** p < 0.001).
as §1, with “assay.” for “assay. Data were analyzed using GraphPad Prism version 6.0 for Windows with two tail t-test for statistical data analysis”
Figure S8. NSC697923 enhances Dox sensitivity of cancer cells. (a, b) Effect of NSC697923 to cancer cells’ viability in Dox treatment . Dox–induced cell death of H1299 ( a) and HCT116 ( b) was quantified by colorimetric cell viability assay after treating 5 µM NSC697923 for 12 h followed by 12h treatment of Dox (0.0 […]
NSC697923. Caspase activity was quantified by luminogenic caspase activity assay. […]

Nc1c(/N=N/c2ccc(-c3ccc(/N=N/c4cc(S(=O)(=O)O)c5ccccc5c4N)cc3)cc2)cc(S(=O)(=O)O)c2ccccc12 [CR, Congo red]
Inhibition of K48 polyubiquitination (E2-25K): effectively inhibited by CR in a dose-dependent manner
Effect on cell viability, compound alone (H1299 cells; H1299, CR 0.0–50.0 µM, 24 h): does not affect
None-toxicity concentration (H1299 cells; determined by cytotoxicity assays): 10 µM
Effect on USP4-enhanced β-catenin transcriptional activity (TOP flash) (USP4): this enhancement was antagonized by CR treatment
Effect on caspase activity of Dox-treated HCT116 cells (HCT116 cells): Enhanced caspase activity
